Reference: patent US9527832B2, “Substituted condensed pyrimidine compounds” (GRÜNENTHAL GMBH, priority 2013, dated 2016)

Target: T1, human PDE4B1 (Homo sapiens, UniProt Q07343)
T1 construct: host or cells: Sf9 cells
Assay: cAMP HTRF assay to determine the activity of hPDE4B1
Type: biochemical
Conditions: for IC50: dose response measurements with eight concentrations, reported as ranges, read-out: IC50
Procedure: cAMP HTRF® Assay to Determine the Activity of hPDE4B1
The inhibiting effect of the compounds on the enzyme activity of human PDE4B1 was measured by the quantification of 5′-adenosine monophosphate (5′-AMP), which is formed from 3′,5′-cyclic adenosine monophosphate (cAMP). Human recombinant enzyme, expressed in Sf9 cells, and the HTRF (homogeneous time-resolved fluorescence) detection method were used in the assay.
The test compound or water (control) was mixed with the human recombinant PDE4B1 enzyme (4.8 U) in a buffer consisting of 44.4 mM tris-HCl, 5.28 mM MgCl2, 2.64 mM DTT and 0.044% Tween 20 (pH 7.8). After adding the cAMP enzyme substrate (final concentration 40 nM), the mixture was incubated for 30 minutes at room temperature. Then a fluorescence acceptor (Dye2 marked with cAMP), a fluorescence donor (anti-cAMP antibody marked with a europium cryptate) and the non-specific phosphodiesterase inhibitor IBMX (3-isobutyl-1-methylxanthine; final concentration 1 mM) were added. After 60 minutes the fluorescence transfer, which correlates with the amount of remaining cAMP, was measured with a microplate reader (Rubystar, BMG) at λex=337 nm, λem=620 nm and λem=665 nm. The enzyme activity was calculated from the quotient formed from the measured signal at 665 nm and that at 620 nm. The result was expressed as the percentage inhibition of enzyme activity of the control (without PDE4 inhibitor). The enzyme was omitted for measurement of the basal control.
IC50 values (IC50=concentration causing a half-maximal inhibition of control specific activity) were derived from dose response measurements with eight different concentrations (n=2; N=1-2).
Literature: N. Saldou et al., Comparison of recombinant human PDE4 isoforms: interaction with substrate and inhibitors, Cell. Signal. Vol. 10, No. 6, 427-440, 1998

[1] = Percentage inhibition of PDE4B at 1 μM test concentration

T1 sequence (Q07343 whole entry): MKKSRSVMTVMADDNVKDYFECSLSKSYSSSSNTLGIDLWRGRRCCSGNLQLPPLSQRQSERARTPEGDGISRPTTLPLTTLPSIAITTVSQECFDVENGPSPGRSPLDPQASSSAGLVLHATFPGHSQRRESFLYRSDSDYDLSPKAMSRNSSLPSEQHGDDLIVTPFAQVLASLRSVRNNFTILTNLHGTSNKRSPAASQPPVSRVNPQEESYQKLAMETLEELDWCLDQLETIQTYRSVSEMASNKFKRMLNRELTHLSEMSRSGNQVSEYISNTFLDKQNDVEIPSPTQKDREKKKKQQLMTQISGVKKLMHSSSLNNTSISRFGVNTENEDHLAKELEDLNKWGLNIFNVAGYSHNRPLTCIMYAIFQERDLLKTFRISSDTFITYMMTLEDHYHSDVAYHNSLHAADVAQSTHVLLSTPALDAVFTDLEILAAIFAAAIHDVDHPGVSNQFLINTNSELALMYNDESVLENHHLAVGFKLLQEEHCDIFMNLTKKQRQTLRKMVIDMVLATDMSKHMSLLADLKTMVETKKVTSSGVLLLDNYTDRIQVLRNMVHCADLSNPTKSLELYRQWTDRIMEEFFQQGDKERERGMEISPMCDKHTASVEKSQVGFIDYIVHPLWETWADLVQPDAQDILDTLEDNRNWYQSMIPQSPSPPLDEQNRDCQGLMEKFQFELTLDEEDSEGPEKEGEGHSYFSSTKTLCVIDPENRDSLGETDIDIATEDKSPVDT

Row | Compound | inhibition at 1 µM [1] [%] | IC50 [nM] | Inhibition at 1 μM test concentration [%] (Percentage inhibition of PDE4B at 1 μM test concentration, 1 µM)
1 | COc1cc(-c2nc3c(c(N4CCc5ccc(OCC(=O)N(C)C)cc54)n2)C[S+]([O-])C3)ccc1Cl (centres unmarked) [2-111, 2-[[1-[2-(4-Chloro-3-methoxy-phenyl)-6-oxo-5,7-dihydro-thieno[3,4-d]pyrimidin-4-yl]-2,3-dihydro-1H-indol-6-yl]oxy]-N,N-dimethyl-acetamide] | 72 | 100 to 1000 | 
2 | COc1cc(F)ccc1-c1nc2c(c(N3CCc4ccc(OCC(=O)N(C)C)cc43)n1)C[S+]([O-])C2 (centres unmarked) [2-112, 2-[[1-[2-(4-Fluoro-2-methoxy-phenyl)-6-oxo-5,7-dihydro-thieno[3,4-d]pyrimidin-4-yl]-2,3-dihydro-1H-indol-6-yl]oxy]-N,N-dimethyl-acetamide] | 64 | 100 to 1000 | 
3 | CN(C)C(=O)COc1ccc2c(c1)N(c1nc(-c3cc(F)ccc3F)nc3c1C[S+]([O-])C3)CC2 (centres unmarked) [2-113, 2-[[1-[2-(2,5-Difluoro-phenyl)-6-oxo-5,7-dihydro-thieno[3,4-d]pyrimidin-4-yl]-2,3-dihydro-1H-indol-6-yl]oxy]-N,N-dimethyl-acetamide] | 99 | < 100 | 
4 | CN(C)C(=O)COc1ccc2c(c1)N(c1nc(-c3ccnc(F)c3)nc3c1C[S+]([O-])C3)CC2 (centres unmarked) [2-138, 2-((1-(2-(2-Fluoropyridin-4-yl)-6-oxido-5,7-dihydrothieno[3,4-d]pyrimidin-4-yl)indolin-6-yl)oxy)-N,N-dimethylacetamide] | 102 |  | 101
5 | CN(C)C(=O)COc1ccc2c(c1)N(c1nc(-c3cncnc3)nc3c1C[S+]([O-])C3)CC2 (centres unmarked) [2-144, N,N-Dimethyl-2-[[1-(6-oxo-2-pyrimidin-5-yl-5,7-dihydro-thieno[3,4-d]pyrimidin-4-yl)-2,3-dihydro-1H-indol-6-yl]oxy]-acetamide] | 92 | 100 to 1000 | 
6 | CN(C)C(=O)COc1ccc2c(c1)N(c1nc(-c3ccc4c(c3)OCO4)nc3c1C[S+]([O-])C3)CC2 (centres unmarked) [2-145, 2-[[1-[2-(1,3-Benzodioxo1-5-yl)-6-oxo-5,7-dihydro-thieno[3,4-d]pyrimidin-4-yl]-2,3-dihydro-1H-indol-6-yl]oxy]-N,N-dimethyl-acetamide] | 95 | < 100 | 
7 | CN(C)C(=O)COc1ccc2c(c1)N(c1nc(-c3cnc4ccccc4c3)nc3c1C[S+]([O-])C3)CC2 (centres unmarked) [2-146, N,N-Dimethyl-2-[[1-(6-oxo-2-quinolin-3-yl-5,7-dihydro-thieno[3,4-d]pyrimidin-4-yl)-2,3-dihydro-1H-indol-6-yl]oxy]-acetamide] | 104 | < 100 | 
8 | CN(C)C(=O)COc1ccc2c(c1)N(c1nc(-c3ccc4cc[nH]c4c3)nc3c1C[S+]([O-])C3)CC2 (centres unmarked) [2-147, 2-[[1-[2-(1H-Indol-6-yl)-6-oxo-5,7-dihydro-thieno[3,4-d]pyrimidin-4-yl]-2,3-dihydro-1H-indol-6-yl]oxy]-N,N-dimethyl-acetamide] | 86 | < 100 | 
9 | CN(C)C(=O)COc1ccc2c(c1)N(c1nc(-c3ccc4cnccc4c3)nc3c1C[S+]([O-])C3)CC2 (centres unmarked) [2-148, 2-[[1-(2-Isoquinolin-6-yl-6-oxo-5,7-dihydro-thieno[3,4-d]pyrimidin-4-yl)-2,-dihydro-1H-indol-6-yl]oxy]-N,N-dimethyl-acetamide] | 100 | < 100 | 
10 | CN(C)C(=O)COc1ccc2c(c1)N(c1nc(-c3ccc4cccnc4c3)nc3c1C[S+]([O-])C3)CC2 (centres unmarked) [2-149, N,N-Dimethyl-2-[[1-(6-oxo-2-quinolin-7-yl-5,7-dihydro-thieno[3,4-d]pyrimidin-4-yl)-2,3-dihydro-1H-indol-6-yl]oxy]-acetamide] | 92 | < 100 | 
11 | CN(C)C(=O)COc1ccc2c(c1)N(c1nc(-c3ccc4ccncc4c3)nc3c1C[S+]([O-])C3)CC2 (centres unmarked) [2-150, 2-[[1-(2-Isoquinolin-7-yl-6-oxo-5,7-dihydro-thieno[3,4-d]pyrimidin-4-yl)-2,3-dihydro-1H-indol-6-yl]oxy]-N,N-dimethyl-acetamide] | 126 | < 100 | 
12 | CN(C)C(=O)COc1ccc2c(c1)N(c1nc(-c3cccc4[nH]ccc34)nc3c1C[S+]([O-])C3)CC2 (centres unmarked) [2-151, 2-[[1-[2-(1H-Indol-4-yl)-6-oxo-5,7-dihydro-thieno[3,4-d]pyrimidin-4-yl]-2,3-dihydro-1H-indol-6-yl]oxy]-N,N-dimethyl-acetamide] | 108 | < 100 | 
13 | CN(C)C(=O)COc1ccc2c(c1)N(c1nc(-c3ccc4[nH]ccc4c3)nc3c1C[S+]([O-])C3)CC2 (centres unmarked) [2-152, 2-[[1-[2-(1H-Indol-5-yl)-6-oxo-5,7-dihydro-thieno[3,4-d]pyrimidin-4-yl]-2,3-dihydro-1H-indol-6-yl]oxy]-N,N-dimethyl-acetamide] | 88 | < 100 | 
14 | CN(C)C(=O)COc1ccc2c(c1)N(c1nc(-c3ccc4c(c3)CCO4)nc3c1C[S+]([O-])C3)CC2 (centres unmarked) [2-153, 2-[[1-[2-(2,3-Dihydro-benzofuran-5-yl)-6-oxo-5,7-dihydro-thieno[3,4-d]pyrimidin-4-yl]-2,3-dihydro-1H-indol-6-yl]oxy]-N,N-dimethyl-acetamide] | 97 | < 100 | 
15 | CN(C)C(=O)COc1ccc2c(c1)N(c1nc(-c3ccc4occc4c3)nc3c1C[S+]([O-])C3)CC2 (centres unmarked) [2-154, 2-[[1-[2-(Benzofuran-5-yl)-6-oxo-5,7-dihydro-thieno[3,4-d]pyrimidin-4-yl]-2,3-dihydro-1H-indol-6-yl]oxy]-N,N-dimethyl-acetamide] | 104 | < 100 | 
16 | CN(C)C(=O)COc1ccc2c(c1)N(c1nc(-c3ccc4sccc4c3)nc3c1C[S+]([O-])C3)CC2 (centres unmarked) [2-155, 2-[[1-[2-(Benzo[b]thiophen-5-yl)-6-oxo-5,7-dihydro-thieno[3,4-d]pyrimidin-4-yl]-2,3-dihydro-1H-indol-6-yl]oxy]-N,N-dimethyl-acetamide] | 102 | < 100 | 
17 | COc1ccc(-c2nc3c(c(N4CCc5cc(CC(=O)O)ccc54)n2)CCC3)cc1F [Compound No. 1-1, 2-(1-(2-(3-Fluoro-4-methoxyphenyl)-6,7-dihydro-5H-cyclopenta[d]-pyrimidin-4-yl)indolin-5-yl)acetic acid] | 102 | < 100 | 
18 | COc1ccc(-c2nc3c(c(N4CCc5cc(CC(=O)O)ccc54)n2)CCC3)cc1Cl [Compound No. 1-2, 2-(1-(2-(3-Chloro-4-methoxyphenyl)-6,7-dihydro-5H-cyclopenta[d]-pyrimidin-4-yl)indolin-5-yl)acetic acid] | 91 | < 100 | 
19 | COc1ccc(-c2nc3c(c(N4CCc5cc(CC(=O)O)ccc54)n2)CCC3)cc1 [Compound No. 1-3, 2-(1-(2-(4-Methoxyphenyl)-6,7-dihydro-5H-cyclopenta[d]pyrimidin-4-yl)indolin-5-yl)acetic acid] | 83 | < 100 | 
20 | COc1ccc(-c2nc3c(c(N4CCc5cc(CC(=O)O)ccc54)n2)CSC3)cc1Cl [Compound No. 1-5, 2-(1-(2-(3-Chloro-4-methoxyphenyl)-5,7-dihydrothieno[3,4-d]pyrimidin-4-yl)indolin-5-yl)acetic acid] | 98 | < 100 | 
21 | COc1ccc(-c2nc3c(c(N4CCc5cc(CC(=O)O)ccc54)n2)C[S+]([O-])C3)cc1Cl (centres unmarked) [Compound No. 1-8, 2-(1-(2-(3-Chloro-4-methoxyphenyl)-6-oxido-5,7-dihydrothieno[3,4-d]pyrimidin-4-yl)indolin-5-yl)acetic acid] | 102 | < 100 | 
22 | O=C(O)Cc1ccc2c(c1)CCN2c1nc(-c2ccc(Cl)s2)nc2c1CCC2 [Compound No. 1-13, 2-(1-(2-(5-Chlorothiophen-2-yl)-6,7-dihydro-5H-cyclopenta[d]-pyrimidin-4-yl)indolin-5-yl)acetic acid] | 78 | < 100 | 
23 | O=C(O)Cc1ccc2c(c1)CCN2c1nc(-c2ccc(F)s2)nc2c1CCC2 [Compound No. 1-15, 2-(1-(2-(5-Fluorothiophen-2-yl)-6,7-dihydro-5H-cyclopenta[d]pyrimidin-4-yl)indolin-5-yl)acetic acid] | 100 | < 100 | 
24 | N#Cc1ccc(-c2nc3c(c(N4CCc5cc(CC(=O)O)ccc54)n2)CCC3)s1 [Compound No. 1-16, 2-(1-(2-(5-Cyanothiophen-2-yl)-6,7-dihydro-5H-cyclopenta[d]pyrimidin-4-yl)indolin-5-yl)acetic acid] | 95 | < 100 | 
25 | O=C(O)Cc1ccc2c(c1)CCN2c1nc(-c2cncs2)nc2c1CCC2 [Compound No. 1-17, 2-(1-(2-(Thiazol-5-yl)-6,7-dihydro-5H-cyclopenta[d]pyrimidin-4-yl)indolin-5-yl)acetic acid] | 83 | 100 to 1000 | 
